13 molecules from ChEMBL document CHEMBL1201862, “PubChem BioAssay data set” (2004) can be followed below.

Holding throughout (experiment): NCI-60 cell line screen, 48 h
For test [1], the system named is A498.
Test [2] relates to A549.
Test [3] relates to CAKI-1.
The subject of test [4] is EKVX.
The test system of test [5] is HCC 2998.
Test [6] deals with HOP-62.
Test [7] concerns HOP-92.
In test [8] the test system is M14.
For test [9], the system named is NCI-H522.
In test [10] the test system is SK-MEL-5.
Test [11] deals with SNB-19.
Test [12] concerns SNB-75.
Test [13] relates to TK-10.
The test system of test [14] is U-251.
Test [15] relates to UACC-62.
Test [16] has as its system UO-31.
For test [17], the system named is CCRF-CEM.
For test [18], the system named is HL-60.

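The compound was tested at five concentrations on cells cultured in 96-well plates, with a 48-hour exposure period. GI50: concentration for 50% inhibition of growth.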 The source made the active and inactive calls. Cut-off read from the data, not from the text of the source: active = GI50 up to about 1.1 µM and inactive = higher.

With `CN(C)CCNC(=O)c1cccc2cc3c(Cl)cccc3nc12`, the GI50 in test [1] was 1.35 µM (inactive); in test [2] it was 0.556 µM (active); in test [3], 3.63 µM (inactive); in test [4], 2.35 µM (inactive); in test [5], 1.27 µM (inactive); in [6], 0.718 µM (active). Further, the GI50 in test [7] is 2.07 µM (inactive); in [8], 2.12 µM (inactive); in test [9], 2.86 µM (inactive); in test [10], 1.71 µM (inactive); in test [11], 1.71 µM (inactive); in [12], 1.97 µM (inactive). In addition, the GI50 was 1.95 µM (inactive) in test [13], 1.24 µM (inactive) in test [14], 1.69 µM (inactive) in [15] and 2.55 µM (inactive) in test [16].
As to `CC1=C(C)C(=O)c2c(cc3ccccn23)C1=O`, the GI50 in test [1] was 21.2 µM (inactive); in test [2] it was 18.4 µM (inactive); in test [17] it was 27 µM (inactive); in [4], 21.3 µM (inactive); in [5], 15.5 µM (inactive); in test [18], 17.4 µM (inactive). Further, the GI50 in [8] is 14.2 µM (inactive); in test [10] it was 10.4 µM (inactive); in test [11] it was 15.3 µM (inactive); in test [12], 26.4 µM (inactive); in test [13], 27 µM (inactive); in test [14], 14.1 µM (inactive). Moreover, the GI50 in [15] was 15.6 µM (inactive); in test [16] it was 24.3 µM (inactive).
For the molecule `COc1cc([C@@H]2c3cc4c(cc3[C@@H](OC(=O)c3cccc(N)c3)C3COC(=O)[C@@H]32)OCO4)cc(OC)c1O` (some centres undefined), the GI50 in [1] is 0.649 µM (active); in test [2], 1.63 µM (inactive); in test [3], 1.84 µM (inactive); in test [17], 2.18 µM (inactive); in [4], 27 µM (inactive); in [5], 9.93 µM (inactive). For the same molecule, the GI50 in test [18] is 2.7 µM (inactive); in test [6], 2.32 µM (inactive); in test [8] it was 0.933 µM (active); in [10] it was 0.536 µM (active); in [11], 34.8 µM (inactive); in test [12], 5.36 µM (inactive). The GI50 in test [13] was 59.3 µM (inactive); in [14], 5.85 µM (inactive); in test [15], 0.667 µM (active); in test [16], 5.26 µM (inactive).
`CC(C)(CCl)NC(=O)c1cccc(C(=O)NC(C)(C)CCl)n1`: the GI50 in test [1], in [2], in [3], in [17], in [4] and in test [5] was > 100 µM (inactive) each time. In addition, the GI50 in test [18], in test [6], in test [7], in test [8], in test [9] and in test [10] was > 100 µM (inactive) throughout. Also, the GI50 in [11] was > 100 µM (inactive); in test [12] it was 92.3 µM (inactive); in test [13] it was > 100 µM (inactive); in test [14] it was > 100 µM (inactive); in test [16], > 100 µM (inactive).
For the molecule `COc1ccccc1C(O)(c1ccccc1)C(O)(c1ccccc1)c1ccccc1OC` (centres undefined), the GI50 in test [1] is > 100 µM (inactive); in test [2] it was > 100 µM (inactive); in test [17], > 100 µM (inactive); in test [4], > 100 µM (inactive); in test [5], > 100 µM (inactive); in test [18], 9.82 µM (inactive). The GI50 in [6] was > 100 µM (inactive); in test [7], 20.3 µM (inactive); in [8] it was > 100 µM (inactive); in test [9], > 100 µM (inactive); in test [10], > 100 µM (inactive); in [11], > 100 µM (inactive). Also, the GI50 was 41.6 µM (inactive) in test [12]; > 100 µM (inactive) in test [13]; > 100 µM (inactive) in test [14]; > 100 µM (inactive) in test [15]; > 100 µM (inactive) in test [16].
Regarding `CCOC(=O)C1(Cc2ccc3ccccc3c2)CCCCCN1` (centres undefined), the GI50 in [2] is 52.4 µM (inactive); in [3], 9.23 µM (inactive); in [4], 69.5 µM (inactive); in [5] it was 19.1 µM (inactive); in test [18] it was 18.8 µM (inactive); in test [6] it was 64.3 µM (inactive). The GI50 in test [7] was 13.9 µM (inactive); in test [8], 20 µM (inactive); in test [11], 43.7 µM (inactive); in test [12], 2.78 µM (inactive); in test [13], 54.1 µM (inactive); in test [14], 47 µM (inactive). The GI50 in test [15] was 46.3 µM (inactive); in test [16] it was 20.3 µM (inactive).
Turning to `CCOC(=O)N1Cc2ccoc2C1`, the GI50 in test [2] was 43.7 µM (inactive); in test [17], > 100 µM (inactive); in test [4], > 100 µM (inactive); in [5], > 100 µM (inactive); in [18], > 100 µM (inactive); in [6] it was > 100 µM (inactive). The GI50 in test [7], in test [8], in test [9], in test [10], in test [11] and in test [12] was > 100 µM (inactive) each time. Moreover, the GI50 in test [13], in [14], in test [15] and in test [16] was > 100 µM (inactive) in each case.
Regarding `CCOC(=O)c1cn(CC)c2cc3c(cc2c1=O)SCS3`, the GI50 in test [2], in test [3], in test [17], in test [4], in test [5] and in [18] was > 100 µM (inactive) in each case. In addition, the GI50 in test [6], in test [7], in test [8], in test [9], in test [10] and in test [11] was > 100 µM (inactive) throughout. Also, the GI50 in [12] was 52.2 µM (inactive); in test [13], > 100 µM (inactive); in test [14], > 100 µM (inactive); in test [15], > 100 µM (inactive); in test [16], > 100 µM (inactive).
On to `CCOC(=O)C1(C)CCCCC(=O)N1` (centres undefined), for which the GI50 in test [2], in test [3], in test [4], in test [5], in test [18] and in test [6] was > 100 µM (inactive) throughout. For the same molecule, the GI50 in [7], in test [8], in [11], in [12], in test [13] and in test [14] was > 100 µM (inactive) each time. Also, the GI50 in [15] and in test [16] was > 100 µM (inactive) in each case.
As for `CC1C2=CC=C(O2)C(C)(C)C2=CC=C(O2)C(C)(C)C2=CC=C(O2)C(C)(C)C2=CC=C1O2`, the GI50 in test [1], in test [2], in test [3], in test [17], in test [4] and in test [5] was > 100 µM (inactive) throughout. Moreover, the GI50 in test [18] is > 100 µM (inactive); in test [6], > 100 µM (inactive); in test [7], 18.9 µM (inactive); in [9], > 100 µM (inactive); in test [11] it was > 100 µM (inactive); in [13] it was > 100 µM (inactive). The GI50 in test [14] was > 100 µM (inactive).
As to `COC(=O)C(=O)C(C#N)c1nc2ccccc2s1` (centres undefined), the GI50 was > 100 µM (inactive) in test [1]; > 100 µM (inactive) in [2]; > 100 µM (inactive) in test [3]; 75.2 µM (inactive) in test [17]; > 100 µM (inactive) in [4]; > 100 µM (inactive) in [5]. For the same molecule, the GI50 in test [18] was 92.9 µM (inactive); in test [6], > 100 µM (inactive); in test [7], > 100 µM (inactive); in test [8], > 100 µM (inactive); in [9], > 100 µM (inactive); in test [10] it was > 100 µM (inactive). Further, the GI50 was > 100 µM (inactive) in test [11]; 42.9 µM (inactive) in test [12]; > 100 µM (inactive) in test [13]; > 100 µM (inactive) in test [15]; 39.8 µM (inactive) in [16].
For `Cc1cc(C(O)CCCc2ccccc2)cc(C)c1O` (centres undefined), the GI50 was 24.5 µM (inactive) in [1]; 32.7 µM (inactive) in test [2]; 27.7 µM (inactive) in [17]; 20.5 µM (inactive) in test [4]; 74.1 µM (inactive) in [5]; 16.6 µM (inactive) in test [18]. For the same molecule, the GI50 in test [6] was 33.3 µM (inactive); in test [8], 56.1 µM (inactive); in [9], 27.4 µM (inactive); in test [10], 22.5 µM (inactive); in test [11] it was 14.6 µM (inactive); in test [12], 16.4 µM (inactive). The GI50 was 31.6 µM (inactive) in test [13], 45.7 µM (inactive) in test [14], 35.9 µM (inactive) in test [15] and 15.4 µM (inactive) in test [16].
For the molecule `CC1CN1c1c(C(=O)/C=C/c2ccc(Cl)cc2)c(-c2ccccc2)nn(C)c1=O` (centres undefined), the GI50 is 4.08 µM (inactive) in test [1]; 4.42 µM (inactive) in test [2]; 4.74 µM (inactive) in [3]; 2.24 µM (inactive) in test [17]; 3.63 µM (inactive) in test [4]; 1.99 µM (inactive) in test [5]. Further, the GI50 in test [18] was 2.23 µM (inactive); in test [6], 2.82 µM (inactive); in [7], > 10 µM (inactive); in test [8] it was 1.95 µM (inactive); in [9], 2.18 µM (inactive); in test [11], 9.71 µM (inactive). The GI50 was 2.65 µM (inactive) in test [12]; 2.92 µM (inactive) in test [13]; 2.35 µM (inactive) in test [14]; 2.32 µM (inactive) in test [15]; 6.44 µM (inactive) in [16].
